Laboratory results from paper PMC11984586, “A novel spider toxin as a selective antagonist of the Kv1 subfamily of voltage-gated potassium channels through gating modulation” (The Journal of Biological Chemistry, 2025).
Read-outs that look alike come from different tables or passages of the source. Bridge positions count the residues as written; N and C are the ends. Peptide text beside a SMILES is read from it.

Experiments:
Type in all cases: cell-based
Kv7.3 = test: Selectivity patch clamp, non-Kv1 channels; details: 10 μM MrVIII; n = 3–5
Protocol: (§1) CHO-K1 cells were selected for expressing Kv channels due to their lack of endogenous Kv channels, while HEK293 or ND7/23 cells were used for Nav and Cav channel expression. CHO-K1 cells were cultured in a Dulbecco's modified Eagle's medium/Ham's F-12 nutrient mixture (DMEM-F12) medium, and HEK293T and ND7/23 cells in DMEM medium, all supplemented with 10% fetal bovine serum and 1% penicillin-streptomycin (all from Gibco, Thermo Fisher Scientific, Inc) under standard conditions (37 °C, 5% CO2, and saturated humidity). These cell lines were purchased from Stem Cell Bank, Chinese Academy of Sciences. Channel plasmids were cotransfected with pEGFP-N1 (encoding GFP) into the respective cells using lipofectamine 2000, following the manufacturer's instructions (Invitrogen, Thermo Fisher Scientific, Inc.). Nav1.9-GFP plasmid was transfected into ND7/23 using the X-tremeGENE HP DNA Transfection Reagent (Roche). After 4 to 6 h transfection, cells were seeded onto poly-lysine–coated coverslips, and 24 to 36 h later, transfected cells were ready for patch-clamp analysis.
(§2) Patch clamp experiments were conducted using an electrophysiology platform comprising a MultiClamp 700B amplifier and an Axon Digidata 1550 AD/DA convertor (Axon Instruments). Data acquisition was performed with pClamp 10.5 software (Axon Instruments). All experiments were performed at room temperature.
(§3) For Kv current recordings, the bath solution contained (in mM) the following: 140 NaCl, 5 KCl, 1 MgCl2, 2 CaCl2, 10 glucose, and 10 Hepes (pH 7.3, adjusted with NaOH), and the pipette solution contained (in mM) the following: 140 KCl, 2.5 MgCl2, 11 EGTA, and 10 Hepes (pH 7.3, adjusted with KOH). Series resistance was maintained below 10 MΩ and compensated to 80%. Concentration–response curves were fitted by the Hill equation to determine the toxin's potency. Whole cell conductance (G) at each depolarizing voltage (V) was determined using the equation: G = I/(V−Vrev), where I is the current amplitude, and Vrev is the reversal potential. The reversal potential for K^+ current was estimated to be −85.6 mV using the Nernst equation. G-V curves were obtained by plotting the normalized conductance as a function of V and fitted by the Boltzmann equation: y = 1/(1+ exp((Va-V)/k)), which Va is the midpoint voltage, V is the test potential, and k is the slope factor. The steady-state fast inactivation of Kv1.3 was measured using a two-pulses protocol. The cell was held at −120 mV, and a train of conditional voltages (−120–40 mV in 10 mV increments, 60 s) were applied to induce channel inactivation, followed by a +60 mV test pulse (300 ms) to assess the proportion of noninactivated channels. The sweep interval was set to 30 s. Currents at the test pulse (I) were normalized to the maximum value (Imax) and plotted as a function of the conditional voltage (V). The curve was fitted by the Boltzmann equation: I/Imax = A+(1 − A)/(1+exp ((V−Vh)/K)), where Vh is the half-maximum inactivation voltage, A represents the minimum channel availability, and k is the slope factor.

Kv2.1 = test: Selectivity patch clamp, non-Kv1 channels; details: 10 μM MrVIII; n = 3–5
Protocol: as §1, §2, §3

Kv7.1 = test: Selectivity patch clamp, non-Kv1 channels; details: 10 μM MrVIII; n = 3–5
Protocol: as §1, §2, §3

Kv4.1-4.3 = test: Selectivity patch clamp, non-Kv1 channels; details: 10 μM MrVIII; n = 3–5
Protocol: as §1, §2, §3

Kv3.1-3.3 = test: Selectivity patch clamp, non-Kv1 channels; details: 10 μM MrVIII; n = 3–5
Protocol: as §1, §2, §3

[1] = molecular target: T1, Kv1.3/I472C mutant (Kv1.3∗) (Homo sapiens, UniProt P22001, I472C); test: Gating-current recording, Kv1.3* in HEK293T cells; details: mean ± SD; for IC50: held at −100 mV, 50 ms depolarization to +30 mV, HEK293T
T1 construct: expressed in transfected cells; host or cells: HEK293T
T1 sequence (P22001 whole entry I472C): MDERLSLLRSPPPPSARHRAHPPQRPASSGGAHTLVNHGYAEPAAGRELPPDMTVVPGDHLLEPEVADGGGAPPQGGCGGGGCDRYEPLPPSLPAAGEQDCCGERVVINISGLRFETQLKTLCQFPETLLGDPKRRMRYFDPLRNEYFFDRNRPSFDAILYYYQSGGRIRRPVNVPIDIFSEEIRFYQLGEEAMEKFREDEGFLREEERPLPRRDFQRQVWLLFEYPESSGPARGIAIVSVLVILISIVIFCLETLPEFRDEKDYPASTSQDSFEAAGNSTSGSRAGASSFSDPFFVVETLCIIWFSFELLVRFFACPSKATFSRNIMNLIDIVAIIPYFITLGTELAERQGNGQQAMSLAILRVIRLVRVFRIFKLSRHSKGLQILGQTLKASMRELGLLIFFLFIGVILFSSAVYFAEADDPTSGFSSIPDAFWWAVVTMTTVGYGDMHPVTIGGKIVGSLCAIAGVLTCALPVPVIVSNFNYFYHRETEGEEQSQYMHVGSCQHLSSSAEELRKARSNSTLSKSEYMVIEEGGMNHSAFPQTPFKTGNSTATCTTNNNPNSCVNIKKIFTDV
Protocol: (§4) The cDNA of hKv1.1, hKv1.2, hKv1.3, rKv1.4, hKv1.5, mKv1.6, and hKv1.7 were subcloned into mammalian expression vectors pcDNA3.1 or pCMV-blank vectors, as well as other plasmids described previously ([35]). Channel mutants were generated by site-directed mutations. Briefly, the parental channel plasmid was amplified using a pair of oppositely directed primers harboring the designed mutation site, with KOD Fx (TOYOBO Co, Ltd). The resulting PCR mix was treated with FastDigest DpnI (Thermo Fisher Scientific) to remove the methylated template. Ten microliters of the digested product was then used to transform 100 μl E. coli DH5α competent cells. Transformants were randomly picked and sequenced to confirm the presence of the intended mutation.
as §1, with “Nav1.9-GFP plasmid was transfected into ND7/23 using the X-tremeGENE HP DNA Transfection Reagent (Roche).” left out, “analysis. […]” for “analysis.”
Gating currents were recorded by transfecting HEK293T cells with a saturating dose of plasmid to ensure maximal channel expression. […] Gating charge movement (Q) was determined by integrating the area under the IgON and IgOFF traces, representing voltage sensor movement in response to depolarizing pulses. […]

hKv1.3 = molecular target: T2, hKv1.3 (Homo sapiens, UniProt P22001); test: Whole-cell patch clamp, Kv1.3 ionic current in CHO-K1 cells; details: mean ± SD; for IC50: 500 ms depolarization to +30 mV from −80 mV holding, CHO-K1, room temperature
T2 construct: expressed in transfected cells; host or cells: CHO-K1
T2 sequence (P22001 whole entry): as the sequence (P22001 whole entry I472C) above, with C472I counted along it
Protocol: as §4, §1, §2, §3

CC[C@H](C)[C@@H]1NC(=O)[C@H](Cc2ccc(O)cc2)NC(=O)[C@H](CCC(N)=O)NC(=O)[C@@H]2CCCN2C(=O)[C@@H]2CSSC[C@H](NC(=O)[C@H](C)NC(=O)[C@H](CO)NC(=O)[C@H](CCC(=O)O)NC(=O)[C@H](CCC(=O)O)NC(=O)[C@@H](N)[C@@H](C)O)C(=O)NCC(=O)NCC(=O)N[C@@H](Cc3ccccc3)C(=O)N[C@@H](CC(N)=O)C(=O)N[C@@H](C)C(=O)N[C@@H](CCCNC(=N)N)C(=O)N[C@H]3CSSC[C@H](NC1=O)C(=O)N[C@@H](CCCCN)C(=O)NCC(=O)N[C@@H](Cc1c[nH]c4ccccc14)C(=O)N[C@@H](CCCNC(=N)N)C(=O)N[C@@H]([C@@H](C)O)C(=O)N[C@@H](CCCCN)C(=O)N[C@@H](CCCNC(=N)N)C(=O)N[C@H](C(=O)N[C@@H](CC(C)C)C(=O)N[C@@H](CC(N)=O)C(=O)N1CCC[C@H]1C(=O)O)CSSC[C@H](NC(=O)[C@H](CCCCN)NC(=O)[C@H](Cc1c[nH]cn1)NC(=O)[C@H](CC(C)C)NC(=O)[C@@H]1CCCN1C3=O)C(=O)N2 [MrVIII] (H-TEESACGGFNARCPLHKCCPQYICKGWRTKRCLNP-OH; disulfide 6-19, 13-24, 18-32; N-terminus and C-terminus assumed)
inhibition of Kv7.3 current (Kv7.3): did not remarkably inhibit
inhibition of Kv2.1 current (Kv2.1): did not remarkably inhibit
inhibition of Kv7.1 current (Kv7.1): did not remarkably inhibit
inhibition of Kv4.1-4.3 currents (Kv4.1-4.3): did not remarkably inhibit
inhibition of Kv3.1-3.3 currents (Kv3.1-3.3): did not remarkably inhibit
Va of Q-V relationship of Kv1.3∗ after toxin ([1]; 5 nM MrVIII, before toxin −30.1 ± 7.1 mV, n = 5): −27.4 ± 10.3 mV
IC50 ([1]; n = 8, read-out: IC50, inhibition of IgOFF gating current of Kv1.3∗): 7 ± 4.2 nM
IC50 ([1]; n = 8, read-out: IC50, inhibition of IgON gating current of Kv1.3∗): 5 ± 3.4 nM
Va of G-V curve of Kv1.3 after toxin (hKv1.3; 5 nM MrVIII, control Va = −26.4 ± 4.6 mV, Boltzmann fit): −27.7 ± 5.1 mV
Vh of steady-state inactivation of Kv1.3 after toxin (hKv1.3; 5 nM MrVIII, control Vh = −42.2 ± 4.7 mV, two-pulse protocol): −42.5 ± 2.4 mV
time constant for toxin association, Kv1.3 (hKv1.3; 10 nM MrVIII, n = 6): 5.4 ± 1.2 s
IC50 (hKv1.3; native toxin, n = 7, read-out: IC50, inhibition of Kv1.3 peak current): 4.4 ± 1.1 nM
IC50 (hKv1.3; synthetic refolded toxin, n = 7, read-out: IC50, inhibition of Kv1.3 current): 4.8 ± 1.6 nM
time constant for dissociation from Kv1.3 (hKv1.3; washout with bath solution after 10 nM MrVIII, n = 6): 33.4 ± 8.3 s
